Results as given in US20260263442A1, “METHOD FOR TREATING L-DOPA-INDUCED DYSKINESIA USING BEFIRADOL” (Neurolixis, Inc., priority 2023, published 2026).
Where two headings read alike, the source gives them in different places.

Key:
6-OH-DA lesioned rats = conditions: cited from earlier work
[1] = system: anxiety and depression in PD patients with LID; assay: Hospital Anxiety Depression Scale (HADS), Phase 2a study; assay type: in vivo, human
Description: The HADS is used to determine the levels of anxiety and depression that a person is experiencing. The questionnaire consists of 7 items related to anxiety and 7 related to depression. Each item on the questionnaires is scored from 0-3, which means that a person can score between 0 and 21 for either anxiety or depression.

5-HT1A receptors = target: T1, 5-HT1A receptors (Homo sapiens, UniProt P08908); conditions: cited from earlier work
T1 sequence (P08908 1-422): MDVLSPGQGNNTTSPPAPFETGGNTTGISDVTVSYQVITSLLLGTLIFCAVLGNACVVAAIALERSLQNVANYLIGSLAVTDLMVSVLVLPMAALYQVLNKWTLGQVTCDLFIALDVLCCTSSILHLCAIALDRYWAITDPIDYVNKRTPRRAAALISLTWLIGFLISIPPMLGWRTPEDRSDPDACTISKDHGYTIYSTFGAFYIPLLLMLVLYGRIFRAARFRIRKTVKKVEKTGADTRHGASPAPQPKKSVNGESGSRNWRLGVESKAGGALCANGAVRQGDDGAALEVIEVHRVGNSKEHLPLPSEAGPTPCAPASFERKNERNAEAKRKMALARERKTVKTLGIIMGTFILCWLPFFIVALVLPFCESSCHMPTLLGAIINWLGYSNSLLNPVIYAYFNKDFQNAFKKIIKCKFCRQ

[2] = system: sleepiness in PD patients with LID; assay: Epworth Sleepiness Scale (ESS), Phase 2a study; assay type: in vivo, human
Description: The ESS is a self-administered questionnaire with 8 questions. Respondents are asked to rate, on a 4-point scale (0-3), their usual chances of dozing off or falling asleep while engaged in 8 different activities. The ESS score (the sum of 8 item scores, 0-3) can range from 0 to 24. Ratings are based on the previous month, or in the case of this study, the intervening period since the previous clinic visit (about 3 weeks).

[3] = Baseline, Per Protocol Set, n = 15
[4] = change from baseline at day 28 (end of up-titration period), Per Protocol Set, n = 15
[5] = change from baseline at day 42 (end of stable dosing period), Per Protocol Set, n = 15

Cc1ccc(CNCC2(F)CCN(C(=O)c3ccc(F)c(Cl)c3)CC2)nc1 [NLX-112]
Rotation behavior (6-OH-DA lesioned rats; 6-OH-DA lesioned rats): increases rotation behavior
Dopamine surge following L-DOPA administration (6-OH-DA lesioned rats; parkinsonian rat model of LID): blunted
Striatal 5-HT release (6-OH-DA lesioned rats; parkinsonian rat model of LID): inhibited striatal 5-HT release
Antidyskinetic efficacy against L-DOPA-induced dyskinesia on chronic administration (6-OH-DA lesioned rats; rat, 2-week treatment period): did maintain its antidyskinetic efficacy
HADS (Anxiety), Baseline, mean (S.D.) [1, 3]: 4.5 (2.5)
HADS (Depression), Baseline, mean (S.D.) [1, 3]: 3.7 (2.7)
Anxiety and depression (HADS), effect ([1]; Days 28 or 42): no consistent statistically significant effect
HADS (Anxiety), Δ D28, mean (S.D.) [1, 4]: −0.5 (2.5)
HADS (Depression), Δ D28, mean (S.D.) [1, 4]: −0.4 (1.7)
HADS (Depression), Δ D42, mean (S.D.) [1, 5]: −0.6 (1.9)
5-HT1A receptor agonist profile (5-HT1A receptors): exceptional selectivity for 5-HT1A receptors and full agonist properties
5-HT1A receptor agonist profile (5-HT1A receptors; listed as Befiradol): selective and potent
Cellular signaling (biased agonist profile) (5-HT1A receptors; via G-proteins): preferentially activates specific cellular signaling cascades
ESS, Baseline, mean (S.D.) [2, 3]: 8.3 (5.2)
Sleepiness (ESS), effect ([2]; Days 28 or 42): no consistent statistically significant effect
ESS, Δ D28, mean (S.D.) [2, 4]: −1.1 (3.3)
ESS, Δ D42, mean (S.D.) [2, 5]: −0.9 (3.4)
